PubChem BioAssay AID248 (DTP/NCI, 2004)
Values joined by “and” are separate entries in the source; they are usually repeats but may differ in a detail not shown here. Equal values may be shown once. Toxic doses and inconclusive results are not listed.

Test system: L1210 leukemia ip in BDF1 mice, survival T/C
Assay: NCI In Vivo Anticancer Drug Screen. Data for tumor model L1210 Leukemia (intraperitoneal) in B6D2F1 (BDF1) mice
Settings: endpoint: mean survival time, higher = longer survival
Method in brief: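 Antitumor effect is assessed in tumor-bearing animals. Survival in the compound arm is compared with a vehicle-dosed control arm and expressed as their quotient.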

[1] = dose: 100.0 mg/kg/injection, schedule: Q01DX001 (ip), vehicle: saline
[2] = dose: 200.0 mg/kg/injection, schedule: Q01DX001 (ip), vehicle: saline
[3] = dose: 100.0 mg/kg/injection, schedule: Q04DX002 (ip), vehicle: saline
[4] = dose: 200.0 mg/kg/injection, schedule: Q04DX002 (ip), vehicle: saline
[5] = dose: 25.0 mg/kg/injection, schedule: Q04DX002 (ip), vehicle: saline with Tween-80
[6] = dose: 400.0 mg/kg/injection, schedule: Q04DX002 (ip), vehicle: saline
[7] = dose: 100.0 mg/kg/injection, schedule: Q01DX009 (ip), vehicle: saline
[8] = dose: 200.0 mg/kg/injection, schedule: Q01DX009 (ip), vehicle: saline
[9] = dose: 100.0 mg/kg/injection, schedule: Q01DX001 (ip), vehicle: saline with Tween-80
[10] = dose: 200.0 mg/kg/injection, schedule: Q01DX001 (ip), vehicle: saline with Tween-80
[11] = dose: 50.0 mg/kg/injection, schedule: Q04DX003 (ip), vehicle: Klucel (hydroxypropylcellulose) (HPC)
[12] = dose: 100.0 mg/kg/injection, schedule: Q04DX003 (ip), vehicle: Klucel (hydroxypropylcellulose) (HPC)
[13] = dose: 200.0 mg/kg/injection, schedule: Q04DX003 (ip), vehicle: Klucel (hydroxypropylcellulose) (HPC)
[14] = dose: 400.0 mg/kg/injection, schedule: Q04DX003 (ip), vehicle: Klucel (hydroxypropylcellulose) (HPC)
[15] = dose: 100.0 mg/kg/injection, schedule: Q04DX003 (ip), vehicle: saline
[16] = dose: 200.0 mg/kg/injection, schedule: Q04DX003 (ip), vehicle: saline
[17] = dose: 400.0 mg/kg/injection, schedule: Q04DX003 (ip), vehicle: saline

SMILES: CCCCN(CCCC)CC(O)c1cc(-c2ccc(Cl)c(Cl)c2)nc2c(Cl)cc(Cl)cc12 (centres undefined)
- T/C [1]: 103 % of control
- T/C [2]: 94 % of control
- T/C (dose: 400.0 mg/kg/injection, schedule: Q01DX001 (ip), vehicle: saline): 94 % of control

SMILES: CNc1nnnn1-c1ccccc1C
- T/C (dose: 100.0 mg/kg/injection, schedule: Q01DX001 (ip), vehicle: Klucel (hydroxypropylcellulose) (HPC)): 93 % of control
- T/C (dose: 200.0 mg/kg/injection, schedule: Q01DX001 (ip), vehicle: Klucel (hydroxypropylcellulose) (HPC)): 98 % of control
- T/C (dose: 400.0 mg/kg/injection, schedule: Q01DX001 (ip), vehicle: Klucel (hydroxypropylcellulose) (HPC)): 105 % of control

SMILES: CCC(C)N=C(N)C(N)=NC(C)CC (centres undefined)
- T/C [3]: 103 % of control
- T/C [4]: 103 % of control

SMILES: [N-]=[N+]=NC1=C(Cl)C(=O)c2ccccc2C1=O
- T/C (dose: 6.25 mg/kg/injection, schedule: Q04DX002 (ip), vehicle: saline with Tween-80): 101 % of control
- T/C (dose: 12.5 mg/kg/injection, schedule: Q04DX002 (ip), vehicle: saline with Tween-80): 96 % of control
- T/C [5]: 96 % of control

SMILES: NC(=O)CC(N)C(N)=O (centres undefined)
- T/C [3]: 98 % of control
- T/C [4]: 106 % of control
- T/C [6]: 109 % of control

SMILES: Cn1cnc([N+](=O)[O-])c1[Se]c1nc(N)nc2nc[nH]c12
- T/C (dose: 25.0 mg/kg/injection, schedule: Q01DX005 (ip), vehicle: other): 159 % of control
- T/C (dose: 50.0 mg/kg/injection, schedule: Q01DX005 (ip), vehicle: other): 92 % of control

SMILES: CCOC(=O)NNC(=O)Nc1ccc(Cl)c([N+](=O)[O-])c1
- T/C [7]: 104 % of control
- T/C [8]: 93 % of control

SMILES: CCCCSP(=O)(N1CCCCC1)N1CCCCC1
- T/C [5]: 97 % of control
- T/C (dose: 50.0 mg/kg/injection, schedule: Q04DX002 (ip), vehicle: saline with Tween-80): 97 % of control
- T/C (dose: 100.0 mg/kg/injection, schedule: Q04DX002 (ip), vehicle: saline with Tween-80): 92 % of control and 94 % of control

SMILES: CN(C)C(=O)Nc1ccc([N+](=O)[O-])cc1[N+](=O)[O-]
- T/C [9]: 96 % of control
- T/C [10]: 89 % of control
- T/C (dose: 400.0 mg/kg/injection, schedule: Q01DX001 (ip), vehicle: saline with Tween-80): 94 % of control
- T/C (dose: 800.0 mg/kg/injection, schedule: Q04DX002 (ip), vehicle: saline with Tween-80): 104 % of control and 107 % of control

SMILES: CCC1C(=O)NC(=O)C1(C)c1ccccc1 (centres undefined)
- T/C (dose: 25.0 mg/kg/injection, schedule: Q01DX009 (ip), vehicle: saline): 115 % of control
- T/C (dose: 25.0 mg/kg/injection, schedule: Q04DX003 (ip), vehicle: Klucel (hydroxypropylcellulose) (HPC)): 120 % of control
- T/C (dose: 50.0 mg/kg/injection, schedule: Q01DX009 (ip), vehicle: saline): 103 % of control
- T/C [11]: 101 % of control
- T/C [7]: 98 % of control
- T/C [12]: 101 % of control
- T/C [8]: 110 % of control
- T/C [13]: 93 % of control
- T/C (dose: 400.0 mg/kg/injection, schedule: Q01DX009 (ip), vehicle: saline): 86 % of control
- T/C [14]: 104 % of control

SMILES: CC(CCN=Cc1ccccc1O)N=Cc1ccccc1O (centres undefined)
- T/C (dose: 50.0 mg/kg/injection, schedule: Q01DX001 (ip), vehicle: other): 107 % of control
- T/C (dose: 100.0 mg/kg/injection, schedule: Q01DX001 (ip), vehicle: other): 89 % of control
- T/C (dose: 200.0 mg/kg/injection, schedule: Q01DX001 (ip), vehicle: other): 97 % of control
- T/C (dose: 400.0 mg/kg/injection, schedule: Q01DX001 (ip), vehicle: other): 95 % of control

SMILES: CCCCN(C)N=Nc1n[nH]nc1C(N)=O
- T/C (dose: 25.0 mg/kg/injection, schedule: Q01DX Z (ip), vehicle: carboxymethylcellulose (CMC)): 118 % of control
- T/C (dose: 50.0 mg/kg/injection, schedule: Q01DX Z (ip), vehicle: carboxymethylcellulose (CMC)): 113 % of control
- T/C (dose: 250.0 mg/kg/injection, schedule: Q01DX001 (ip), vehicle: carboxymethylcellulose (CMC)): 123 % of control

SMILES: COC(=O)c1ccccc1N=Nc1ccc(O)c(C(C)C)c1
- T/C (dose: 25.0 mg/kg/injection, schedule: Q01DX009 (ip), vehicle: Klucel (hydroxypropylcellulose) (HPC)): 98 % of control
- T/C (dose: 50.0 mg/kg/injection, schedule: Q01DX009 (ip), vehicle: Klucel (hydroxypropylcellulose) (HPC)): 98 % of control
- T/C [12]: 97 % of control
- T/C [13]: 100 % of control
- T/C [14]: 98 % of control

SMILES: COC(=O)CCC(NC(=O)OCc1ccccc1)C(=O)O (centres undefined)
- T/C [12]: 99 % of control
- T/C [13]: 112 % of control

SMILES: Cc1ccc(NC(=O)Nc2ccc(C)cc2C)cc1
- T/C (dose: 100.0 mg/kg/injection, schedule: Q01DX001 (ip), vehicle: carboxymethylcellulose (CMC)): 90 % of control
- T/C (dose: 200.0 mg/kg/injection, schedule: Q01DX001 (ip), vehicle: carboxymethylcellulose (CMC)): 98 % of control
- T/C (dose: 400.0 mg/kg/injection, schedule: Q01DX001 (ip), vehicle: carboxymethylcellulose (CMC)): 92 % of control

SMILES: CCCCN(CCCC)S(=O)(=O)CCCC
- T/C [15]: 91 % of control
- T/C [16]: 103 % of control
- T/C [17]: 94 % of control

SMILES: O=S1(=O)CCNNCC1
- T/C (dose: 37.5 mg/kg/injection, schedule: Q01DX009 (ip), vehicle: saline): 100 % of control
- T/C (dose: 75.0 mg/kg/injection, schedule: Q01DX009 (ip), vehicle: saline): 109 % of control
- T/C (dose: 150.0 mg/kg/injection, schedule: Q01DX009 (ip), vehicle: saline): 105 % of control
- T/C (dose: 300.0 mg/kg/injection, schedule: Q01DX009 (ip), vehicle: saline): 103 % of control

SMILES: Nc1ncnc2c1nc(Br)n2C1OC(CO)C(O)C1O (centres undefined)
- T/C [15]: 97 % of control
- T/C [16]: 101 % of control
- T/C [17]: 101 % of control

SMILES: S=P(N1CCCCC1)(N1CCCCC1)N1CCCCC1
- T/C (dose: 100.0 mg/kg/injection, schedule: Q01DX009 (ip), vehicle: Klucel (hydroxypropylcellulose) (HPC)): 100 % of control
- T/C (dose: 200.0 mg/kg/injection, schedule: Q01DX009 (ip), vehicle: Klucel (hydroxypropylcellulose) (HPC)): 103 % of control
- T/C (dose: 400.0 mg/kg/injection, schedule: Q01DX009 (ip), vehicle: Klucel (hydroxypropylcellulose) (HPC)): 100 % of control

SMILES: Nc1nc(N)c2nc(COc3ccc(C(=O)NC(CCC(=O)O)C(=O)O)cc3)cnc2n1 (centres undefined)
- T/C (dose: 0.5 mg/kg/injection, schedule: Q01DX009 (ip), vehicle: sodium bicarbonate): 122 % of control
- T/C (dose: 0.8 mg/kg/injection, schedule: Q01DX009 (ip), vehicle: sodium bicarbonate): 122 % of control
- T/C (dose: 2.5 mg/kg/injection, schedule: Q01DX009 (ip), vehicle: sodium bicarbonate): 122 % of control
- T/C (dose: 5.0 mg/kg/injection, schedule: Q01DX009 (ip), vehicle: sodium bicarbonate): 100 % of control and 90 % of control

SMILES: C/C=C/C(=O)Nc1cc(C(F)(F)F)ccc1Cl
- T/C (dose: 25.0 mg/kg/injection, schedule: Q01DX009 (ip), vehicle: saline with Tween-80): 93 % of control and 97 % of control
- T/C (dose: 50.0 mg/kg/injection, schedule: Q01DX009 (ip), vehicle: saline with Tween-80): 97 % of control and 89 % of control
- T/C (dose: 50.0 mg/kg/injection, schedule: Q04DX003 (ip), vehicle: saline with Tween-80): 98 % of control
- T/C [9]: 98 % of control
- T/C (dose: 100.0 mg/kg/injection, schedule: Q01DX009 (ip), vehicle: saline with Tween-80): 96 % of control and 90 % of control
- T/C [7]: 94 % of control and 102 % of control
- T/C [3]: 102 % of control and 109 % of control
- T/C (dose: 100.0 mg/kg/injection, schedule: Q04DX003 (ip), vehicle: saline with Tween-80): 98 % of control and 89 % of control
- T/C [10]: 88 % of control
- T/C [8]: 88 % of control
- T/C [4]: 94 % of control and 103 % of control
- T/C (dose: 200.0 mg/kg/injection, schedule: Q04DX003 (ip), vehicle: saline with Tween-80): 109 % of control
- T/C [6]: 95 % of control
- T/C (dose: 400.0 mg/kg/injection, schedule: Q04DX003 (ip), vehicle: saline with Tween-80): 95 % of control

SMILES: CCN(CC)c1ccc(-c2nc3ccccc3s2)cc1
- T/C [11]: 99 % of control
- T/C [12]: 94 % of control
- T/C [13]: 91 % of control

SMILES: O=[N+]([O-])c1cccc([I+]c2ccccc2)c1
- T/C (dose: 50.0 mg/kg/injection, schedule: Q01DX001 (ip), vehicle: saline): 91 % of control
- T/C [1]: 95 % of control
- T/C [2]: 101 % of control
